Results: US4963566A, “Benzimidazolyl-sulfinyl-tetrahydroquinolines” (Otsuka Pharmaceutical Co., Ltd., priority 1986, dated 1990)

Target: T1, H^+ +K^+ ATPase (Sus scrofa, UniProt P19156)
T1 construct: prepared from porcine stomach; from tissue; host or cells: porcine stomach
Assay: H+ +K+ ATPase inhibition (inorganic phosphoric acid release)
Type: biochemical
Details: enzyme prepared from porcine stomach; 30 min with compound at room temperature, pH 6.1; then 30 min at 37° C., pH 7.4, 20 mM KCl
Method: H^+ +K^+ ATPase (adenosine triphosphatase) (amount of protein: 10 μg) prepared from porcine stomach was added to a Pipes-TRIS [i.e. 2-amino-2-(hydroxymethyl)-1,3-propanediol] buffer solution (pH 6.1) containing 2 mM of piperazine N,N'-bis(2-ethanesulfonic acid), and the mixture was let stand at room temperature. A test compound was dissolved in dimethyl formamide, and the mixture was added to said H^+ +K^+ ATPase buffer solution so that the final concentration should be 1% and let stand for reaction for 30 minutes at room temperature. Then a 75 mM Pipes-TRIS buffer (1 ml, pH 7.4) (containing 4 mM MgCl2, 4 mM Na2 ATP, and 20 mM KCl) and a 75 mM Pipes-TRIS buffer (1 ml, pH 7.4) (containing 4 mM MgCl2, and 4 mM Na2 ATP) were added to the solution individually to make two kinds of samples and these samples were presented for reaction for 30 minutes at 37° C. 40% Trichloroacetic acid (0.3 ml) was added to each sample to stop the reaction. The solution were subjected to centrifugal separation (3000 rpm) for 10 minutes, and the supernatant was taken off, then the formed inorganic phosphoric acid was measured by Fiske and Subbarow's method [J. Biol. Chem. vol. 66, 375 (1925)]. The value of deducting the amount of inorganic phosphoric acid taken from the Pipes-Tris buffer not containing 20 mM KCl from that taken from the Pipes-Tris buffer containing 20 mM KCl was calculated in terms of unit protein and unit hour to be defined as an activity index of enzyme. Inhibition level (%) in doses of administration was estimated by control values and activity indices of enzyme, and from the obtained inhibition level (%), IC50 (dose of administration of compounds to inhibit in 50%) was obtained.

T1 sequence (P19156 2-1034 limits assumed): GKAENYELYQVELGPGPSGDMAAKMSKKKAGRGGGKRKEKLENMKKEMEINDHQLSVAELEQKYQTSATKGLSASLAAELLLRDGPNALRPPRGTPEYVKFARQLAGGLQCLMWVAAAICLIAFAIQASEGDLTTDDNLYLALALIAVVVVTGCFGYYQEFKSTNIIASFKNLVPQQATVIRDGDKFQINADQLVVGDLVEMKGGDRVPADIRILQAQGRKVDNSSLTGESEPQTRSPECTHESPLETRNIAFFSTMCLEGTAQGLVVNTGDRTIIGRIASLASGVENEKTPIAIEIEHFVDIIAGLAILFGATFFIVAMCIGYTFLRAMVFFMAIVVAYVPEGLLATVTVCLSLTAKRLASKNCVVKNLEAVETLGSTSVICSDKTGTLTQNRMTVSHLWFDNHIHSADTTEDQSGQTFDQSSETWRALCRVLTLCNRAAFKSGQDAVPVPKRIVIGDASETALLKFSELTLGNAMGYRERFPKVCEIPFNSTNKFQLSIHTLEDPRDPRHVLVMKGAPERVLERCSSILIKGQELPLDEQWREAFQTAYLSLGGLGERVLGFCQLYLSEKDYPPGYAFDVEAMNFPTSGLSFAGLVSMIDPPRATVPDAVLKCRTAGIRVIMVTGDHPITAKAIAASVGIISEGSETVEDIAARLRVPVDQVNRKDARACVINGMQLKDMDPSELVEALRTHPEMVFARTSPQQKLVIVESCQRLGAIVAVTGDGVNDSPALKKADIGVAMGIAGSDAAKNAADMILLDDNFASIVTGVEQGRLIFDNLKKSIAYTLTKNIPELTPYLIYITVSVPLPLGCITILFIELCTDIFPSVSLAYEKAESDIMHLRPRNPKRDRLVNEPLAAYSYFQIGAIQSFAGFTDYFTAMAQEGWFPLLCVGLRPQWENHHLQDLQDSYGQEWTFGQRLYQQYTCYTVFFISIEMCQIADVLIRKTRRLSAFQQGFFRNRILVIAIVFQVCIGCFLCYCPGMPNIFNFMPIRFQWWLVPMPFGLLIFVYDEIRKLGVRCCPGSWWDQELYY
T1 sequence (P18434 whole entry partner): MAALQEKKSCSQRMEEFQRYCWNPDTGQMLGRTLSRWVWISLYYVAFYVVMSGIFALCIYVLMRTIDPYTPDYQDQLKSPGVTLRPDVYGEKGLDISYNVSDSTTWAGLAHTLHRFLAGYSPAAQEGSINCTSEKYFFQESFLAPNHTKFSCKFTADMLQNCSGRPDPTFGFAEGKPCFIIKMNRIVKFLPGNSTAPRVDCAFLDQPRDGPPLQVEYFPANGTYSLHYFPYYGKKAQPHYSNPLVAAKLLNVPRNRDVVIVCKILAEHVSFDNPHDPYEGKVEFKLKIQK

Row | Molecule | IC50 [nM]
1 | 1,4-dimethyl-8-(5-fluoro-6-methyl-2-benzimidazolyl)sulfinylmethyl-1,2,3,4- tetrahydroquinoline [Test compound No. 30] | 610
2 | CCN1CCCc2cccc(C[S+]([O-])c3nc4ccc(F)cc4[nH]3)c21 (centres unmarked) [Test compound No. 4, 1-ethyl-8-(5-fluoro-2-benzimidazolyl)sulfinylmethyl-1,2,3,4-tetrahydroquinoline] | 1000
3 | CCN1CCCc2cccc(C[S+]([O-])c3nc4cc(OC)c(F)cc4[nH]3)c21 (centres unmarked) [Test compound No. 6, 1-ethyl-8-(5-fluoro-6-methoxy-2-benzimidazolyl)sulfinylmethyl-1,2,3,4-tetrahydroquinoline] | 620
4 | CCOc1cc2[nH]c([S+]([O-])Cc3cccc4c3N(CC)CCC4)nc2cc1F (centres unmarked) [Test compound No. 7, 1-ethyl-8-(5-ethoxy-6-fluoro-2-benzimidazolyl)sulfinylmethyl-1,2,3,4-tetrahydroquinoline] | 1600
5 | CCN1CCCc2cccc(C[S+]([O-])c3nc4ccc(C(C)=O)cc4[nH]3)c21 (centres unmarked) [Test compound No. 9, 1-ethyl-8-(5-acetyl-2-benzimidazolyl)sulfinylmethyl-1,2,3,4-tetrahydroquinoline] | 2200
6 | CCN1CCCc2cccc(C[S+]([O-])c3nc4cccc(C)c4[nH]3)c21 (centres unmarked) [Test compound No. 11, 1-ethyl-8-(4-methyl-2-benzimidazolyl)sulfinylmethyl-1,2,3,4-tetrahydroquinoline] | 500
7 | CN1CCCc2cccc(C[S+]([O-])c3nc4ccc(F)cc4[nH]3)c21 (centres unmarked) [Test compound No. 15, 1-methyl-8-(5-fluoro-2-benzimidazolyl)sulfinylmethyl-1,2,3,4-tetrahydroquinoline] | 530
8 | COc1ccc2nc([S+]([O-])Cc3cccc4c3N(C)CCC4)[nH]c2c1 (centres unmarked) [Test compound No. 16, 1-methyl-8-(5-methoxy-2-benzimidazolyl)sulfinylmethyl-1,2,3,4-tetrahydroquinoline] | 690
9 | Cc1ccc2nc([S+]([O-])Cc3cccc4c3N(C)CCC4)[nH]c2c1 (centres unmarked) [Test compound No. 17, 1-methyl-8-(5-methyl-2-benzimidazolyl)sulfinylmethyl-1,2,3,4-tetrahydroquinoline] | 530
10 | C=CCN1CCCc2cccc(C[S+]([O-])c3nc4ccc(OC)cc4[nH]3)c21 (centres unmarked) [Test compound No. 22, 1-allyl-8-(5-methoxy-2-benzimidazolyl)sulfinylmethyl-1,2,3,4-tetrahydroquinoline] | 960
11 | C#CCN1CCCc2cccc(C[S+]([O-])c3nc4ccccc4[nH]3)c21 (centres unmarked) [Test compound No. 26, 1-propargyl-8-(2-benzimidazolyl)sulfinylmethyl-1,2,3,4-tetrahydroquinoline] | 1600
12 | Cc1ccc2nc([S+]([O-])Cc3cccc4c3N(Cc3ccccc3)CCC4)[nH]c2c1 (centres unmarked) [Test compound No. 28, 1-benzyl-8-(5-methyl-2-benzimidazolyl)sulfinylmethyl-1,2,3,4-tetrahydroquinoline] | 650
13 | CCN1CCCc2cc(Br)cc(C[S+]([O-])c3nc4ccccc4[nH]3)c21 (centres unmarked) [Test compound No. 31, 1-ethyl-6-bromo-8-(2-benzimidazolyl)sulfinylmethyl-1,2,3,4-tetrahydroquinoline] | 6400

Now from value to molecule:

Row | IC50 [nM] | Molecule
14 | 180 | CCN1CCCc2cccc(C[S+]([O-])c3nc4ccc(C)cc4[nH]3)c21 (centres unmarked) [Test compound No. 2, 1-ethyl-8-(5-methyl-2-benzimidazolyl)sulfinylmethyl-1,2,3,4-tetrahydroquinoline]
15 | 450 | CCN1CCCc2cccc(C[S+]([O-])c3nc4ccc(OC)cc4[nH]3)c21 (centres unmarked) [Test compound No. 3, 1-ethyl-8-(5-methoxy-2-benzimidazolyl)sulfinylmethyl-1,2,3,4-tetrahydroquinoline]
16 | 440 | CCN1CCCc2cccc(C[S+]([O-])c3nc4cc(F)c(F)cc4[nH]3)c21 (centres unmarked) [Test compound No. 5, 1-ethyl-8-(5,6-difluoro-2-benzimidazolyl)sulfinylmethyl-1,2,3,4-tetrahydroquinoline]
17 | 220 | CCN1CCCc2cccc(C[S+]([O-])c3nc4ccc(Cl)cc4[nH]3)c21 (centres unmarked) [Test compound No. 8, 1-ethyl-8-(5-chloro-2-benzimidazolyl)sulfinylmethyl-1,2,3,4-tetrahydroquinoline]
18 | 370 | CCN1CCCc2cccc(C[S+]([O-])c3nc4ccc(C(F)(F)F)cc4[nH]3)c21 (centres unmarked) [Test compound No. 10, 1-ethyl-8-(5-trifluoromethyl-2-benzimidazolyl)sulfinylmethyl-1,2,3,4-tetrahydroquinoline]
19 | 420 | CCN1CCCc2cccc(C[S+]([O-])c3nc4cc(C)cc(C)c4[nH]3)c21 (centres unmarked) [Test compound No. 12, 1-ethyl-8-(4,6-dimethyl-2-benzimidazolyl)sulfinylmethyl-1,2,3,4-tetrahydroquinoline]
20 | 170 | CCN1CCCc2cccc(C[S+]([O-])c3nc4cc(C)c(C)cc4[nH]3)c21 (centres unmarked) [Test compound No. 13, 1-ethyl-8-(5,6-dimethyl-2-benzimidazolyl)sulfinylmethyl-1,2,3,4-tetrahydroquinoline]
21 | 170 | CN1CCCc2cccc(C[S+]([O-])c3nc4ccccc4[nH]3)c21 (centres unmarked) [Test compound No. 14, 1-methyl-8-(2-benzimidazolyl)sulfinylmethyl-1,2,3,4-tetrahydroquinoline]
22 | 200 | CN1CCCc2cccc(C[S+]([O-])c3nc4ccc(Cl)cc4[nH]3)c21 (centres unmarked) [Test compound No. 18, 1-methyl-8-(5-chloro-2-benzimidazolyl)sulfinylmethyl-1,2,3,4-tetrahydroquinoline]
23 | 410 | Cc1cccc2nc([S+]([O-])Cc3cccc4c3N(C)CCC4)[nH]c12 (centres unmarked) [Test compound No. 19, 1-methyl-8-(4-methyl-2-benzimidazolyl)sulfinylmethyl-1,2,3,4-tetrahydroquinoline]
24 | 330 | COc1cc2nc([S+]([O-])Cc3cccc4c3N(C)CCC4)[nH]c2cc1F (centres unmarked) [Test compound No. 20, 1-methyl-8-(5-fluoro-6-methoxy-2-benzimidazolyl)sulfinylmethyl-1,2,3,4-tetrahydroquinoline]
25 | 330 | C=CCN1CCCc2cccc(C[S+]([O-])c3nc4ccccc4[nH]3)c21 (centres unmarked) [Test compound No. 21, 1-allyl-8-(2-benzimidazolyl)sulfinylmethyl-1,2,3,4-tetrahydroquinoline]
26 | 490 | C=CCN1CCCc2cccc(C[S+]([O-])c3nc4ccc(F)cc4[nH]3)c21 (centres unmarked) [Test compound No. 23, 1-allyl-8-(5-fluoro-2-benzimidazolyl)sulfinylmethyl-1,2,3,4-tetrahydroquinoline]
27 | 180 | CCCCN1CCCc2cccc(C[S+]([O-])c3nc4ccccc4[nH]3)c21 (centres unmarked) [Test compound No. 24, 1-n-butyl-8-(2-benzimidazolyl)sulfinylmethyl-1,2,3,4-tetrahydroquinoline]
28 | 330 | CCCCN1CCCc2cccc(C[S+]([O-])c3nc4ccc(C)cc4[nH]3)c21 (centres unmarked) [Test compound No. 25, 1-n-butyl-8-(5-methyl-2-benzimidazolyl)sulfinylmethyl-1,2,3,4-tetrahydroquinoline]
29 | 250 | CC1CCN(C)c2c(C[S+]([O-])c3nc4ccccc4[nH]3)cccc21 (centres unmarked) [Test compound No. 29, 1,4-dimethyl-8-(2-benzimidazolyl)sulfinylmethyl-1,2,3,4-tetrahydroquinolin]
